In patent US10208016B2, “1-sulfonyl piperidine derivatives as modulators of prokineticin receptors” (TAKEDA PHARMACEUTICAL COMPANY LIMITED, priority 2013, dated 2019):

Biological target: human PKR1 receptors (Homo sapiens (Human), UniProt Q8TCW9)
Assay: PKR1 antagonist calcium mobilisation assay (FLIPR), block of PK1-mediated intracellular calcium release
Type: cell-based
Settings: RBL2H3 cells expressing human PKR1; stimulation with PK1 at EC80; calcium fluorescence
Experimental: Prokineticin receptor 1 (PKR1) antagonists may be functionally assessed by measurement of change in intracellular calcium levels induced by Gq mediated increase in inositol triphosphate (IP3) levels. The ability of a compound to block the intracellular release of calcium mediated by PK1 in RBL2H3 cells expressing human PKR1 receptors is determined as a measure of the compound's antagonist activity in vitro.
Approximately 10,000 cells per assay well are seeded in normal culture medium in a 384 well plate (Corning). Twenty-four hours after seeding, the cells are loaded with a calcium sensitive fluorescent dye by replacing the culture medium with assay buffer (1× Hanks buffered saline, 25 mM HEPES, 0.1% w/v fatty acid free BSA (bovine serum albumin), pH 7.4) containing 1 mM probenecid and 1× Calcium 5 Reagent (Molecular Devices). Cells are incubated at 37° C. for 1 hour to allow for dye uptake.
To test for antagonist activity, test compounds at a final concentration range between 0.32 nM-10 μM (diluted in assay buffer) are added to the assay wells and allowed to incubate for 10 minutes prior to stimulation with PK1. After incubation with test compounds the assay plate is placed in a FLIPR Tetra (Molecular Devices) and PK1 (diluted in assay buffer) is added at the determined EC80 concentration (final). Ligand-dependent changes in intracellular calcium levels are determined by measuring changes in fluorescence of the dye at […] following excitation at 485 nm.

Sequence of human PKR1 receptors (Q8TCW9 whole entry): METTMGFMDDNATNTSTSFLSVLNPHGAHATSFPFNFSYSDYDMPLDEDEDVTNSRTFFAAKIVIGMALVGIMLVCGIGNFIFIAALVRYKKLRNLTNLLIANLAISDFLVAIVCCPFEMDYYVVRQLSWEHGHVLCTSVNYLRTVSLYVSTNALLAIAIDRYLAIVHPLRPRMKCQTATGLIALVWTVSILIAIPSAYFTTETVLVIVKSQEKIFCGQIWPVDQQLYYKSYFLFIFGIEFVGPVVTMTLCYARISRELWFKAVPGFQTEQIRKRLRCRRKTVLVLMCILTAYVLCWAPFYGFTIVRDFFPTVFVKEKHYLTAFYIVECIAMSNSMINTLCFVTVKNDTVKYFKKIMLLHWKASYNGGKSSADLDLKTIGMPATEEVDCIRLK

Question: For `Cc1[nH]nc(C2CC2)c1S(=O)(=O)N1CCC(Cc2ccc(Cl)c(F)c2)CC1` [Example 1, 4-(4-Chloro-3-fluorobenzyl)-1-((3-cyclopropyl-5-methyl-1H-pyrazol-4-yl)sulfonyl)piperidine], which IC50 is on record?
Answer: 1370 nM

Question: How did the IC50 turn out when `COC(=O)C(=C1CCN(S(=O)(=O)c2c(C)n[nH]c2C)CC1)c1ccc(Cl)cc1` [Example 2, Methyl 2-(4-Chlorophenyl)-2-(1-((3,5-dimethyl-1H-pyrazol-4-yl)sulfonyl)piperidin-4-ylidene)acetate] was run?
Answer: 3100 nM

Question: Which IC50 does the source give for `Cc1n[nH]c(C)c1S(=O)(=O)N1CCC(=C(C#N)c2ccc(Cl)cc2)CC1` [Example 3, 2-(4-Chlorophenyl)-2-(1-((3,5-dimethyl-1H-pyrazol-4-yl)sulfonyl)piperidin-4-ylidene)acetonitrile] here?
Answer: 40 nM

Question: For `Cc1n[nH]c(C)c1S(=O)(=O)N1CCC(=C(C#N)c2c(F)cccc2F)CC1` [Example 4, 2-(2,6-Difluorophenyl)-2-(1-((3,5-dimethyl-1H-pyrazol-4-yl)sulfonyl)piperidin-4-ylidene)acetonitrile], which IC50 is on record?
Answer: 3680 nM

Question: For `Cc1n[nH]c(C)c1S(=O)(=O)N1CCC(=C(C#N)c2ccc(Cl)cc2F)CC1` [Example 5, 2-(4-Chloro-2-fluorophenyl)-2-(1-((3,5-dimethyl-1H-pyrazol-4-yl)sulfonyl)piperidin-4-ylidene)acetonitrile], which IC50 is on record?
Answer: 180 nM

Question: How did the IC50 turn out when `CCc1n[nH]c(CC)c1S(=O)(=O)N1CCC(=C(C#N)c2ccc(Cl)cc2)CC1` [Example 6, 2-(4-Chlorophenyl)-2-(1-((3,5-diethyl-1H-pyrazol-4-yl)sulfonyl)piperidin-4-ylidene)acetonitrile] was run?
Answer: 50 nM

Question: Which IC50 does the source give for `Cc1c(S(=O)(=O)N2CCC(=C(C#N)c3ccc(Cl)cc3)CC2)c(C(F)(F)F)nn1C` [Example 7, 2-(4-Chlorophenyl)-2-(1-((1,5-dimethyl-3-(trifluoromethyl)-1H-pyrazol-4-yl)sulfonyl)piperidin-4-ylidene)acetonitrile] here?
Answer: 210 nM

Question: How did the IC50 turn out when `Cc1nn(C)c(C)c1S(=O)(=O)N1CCC(=C(C#N)c2c(F)cccc2F)CC1` [Example 8, 2-(2,6-Difluorophenyl)-2-(1-((1,3,5-trimethyl-1H-pyrazol-4-yl)sulfonyl)piperidin-4-ylidene)acetonitrile] was run?
Answer: 5430 nM

Question: With `Cc1n[nH]c(C)c1S(=O)(=O)N1CCC(=C(C#N)c2ccc(OC(F)(F)F)cc2)CC1` [Example 9] as the molecule, how does the IC50 read?
Answer: 150 nM

Question: Which IC50 does the source give for `Cc1n[nH]c(C)c1S(=O)(=O)N1CC/C(=C(\C#N)c2ccc(Cl)cc2)C(C)C1` (stereo not shown) [Example 10, 2-(4-Chlorophenyl)-2-(1-((3,5-dimethyl-1H-pyrazol-4-yl)sulfonyl)-3-methylpiperidin-4-ylidene) acetonitrile] here?
Answer: 470 nM

Question: Which IC50 does the source give for `Cc1n[nH]c(C)c1S(=O)(=O)N1CCC(=Cc2ccc(Cl)cc2F)CC1` [Example 11, 4-(4-Chloro-2-fluorobenzylidene)-1-((3,5-dimethyl-1H-pyrazol-4-yl)sulfonyl)piperidine] here?
Answer: 600 nM

Question: With `Cc1nn(C)c(C)c1S(=O)(=O)N1CCC(=Cc2ccc(Cl)cc2F)CC1` [Example 12, 4-(4-Chloro-2-fluorobenzylidene)-1-((1,3,5-trimethyl-1H-pyrazol-4-yl)sulfonyl)piperidine] as the molecule, how does the IC50 read?
Answer: 550 nM

Question: For `CC(=C1CCN(S(=O)(=O)c2c(C)n[nH]c2C)CC1)c1ccc(Cl)cc1` [Example 13], which IC50 is on record?
Answer: 760 nM

Question: Which IC50 does the source give for `Cc1n[nH]c(C)c1S(=O)(=O)N1CCC(=Cc2ccc(Cl)cc2)CC1` [Example 14, 4-(4-Chlorobenzylidene)-1-((3,5-dimethyl-1H-pyrazol-4-yl)sulfonyl)piperidine] here?
Answer: 760 nM

Question: How did the IC50 turn out when `Cc1nn(C)c(C)c1S(=O)(=O)N1CCC(=C(C#N)c2ccc(Cl)cc2)CC1` [Example 15, 2-(4-Chlorophenyl)-2-(1-((1,3,5-trimethyl-1H-pyrazol-4-yl)sulfonyl)piperidin-4-ylidene)acetonitrile] was run?
Answer: 40 nM

Question: With `Cc1n[nH]c(C)c1S(=O)(=O)N1CCC(=C(F)c2ccc(Cl)cc2)CC1` [Example 16, 4-((4-Chlorophenyl)fluoromethylene)-1-((3,5-dimethyl-1H-pyrazol-4-yl)sulfonyl)piperidine] as the molecule, how does the IC50 read?
Answer: 160 nM

Question: Which IC50 does the source give for `Cc1n[nH]c(C)c1S(=O)(=O)N1CCC(=C(F)c2ccc(F)c(Cl)c2)CC1` [Example 17, 4-((3-Chloro-4-fluorophenyl)fluoromethylene)-1-((3,5-dimethyl-1H-pyrazol-4-yl)sulfonyl) piperidine] here?
Answer: 1880 nM

Question: With `Cc1n[nH]c(C)c1S(=O)(=O)N1CCC(=C(F)c2ccc(Cl)cc2Cl)CC1` [Example 18, 4-((2,4-Dichlorophenyl)fluoromethylene)-1-((3,5-dimethyl-1H-pyrazol-4-yl)sulfonyl)piperidine] as the molecule, how does the IC50 read?
Answer: 260 nM

Question: How did the IC50 turn out when `Cc1n[nH]c(C)c1S(=O)(=O)N1CCC(=C(F)c2ccc(Cl)c(Cl)c2)CC1` [Example 19, 4-((3,4-Dichlorophenyl)fluoromethylene)-1-((3,5-dimethyl-1H-pyrazol-4-yl)sulfonyl)piperidine] was run?
Answer: 520 nM

Question: With `Cc1n[nH]c(C)c1S(=O)(=O)N1CCC(=C(F)c2ccc(Cl)c(F)c2)CC1` [Example 20, 4-((4-Chloro-3-fluorophenyl)fluoromethylene)-1-((3,5-dimethyl-1H-pyrazol-4-yl)sulfonyl)piperidine] as the molecule, how does the IC50 read?
Answer: 190 nM

Question: For `Cc1n[nH]c(C)c1S(=O)(=O)N1CCC(=C(F)c2ccc(Cl)cc2F)CC1` [Example 21, 4-((4-Chloro-2-fluorophenyl)fluoromethylene)-1-((3,5-dimethyl-1H-pyrazol-4-yl)sulfonyl)piperidine], which IC50 is on record?
Answer: 400 nM

Question: With `Cc1n[nH]c(C)c1S(=O)(=O)N1CCC(=C(F)c2cnc3ccccc3c2)CC1` [Example 23] as the molecule, how does the IC50 read?
Answer: 60 nM
